In patent US8710044B2, “Bicyclic azaheterocyclic carboxamides” (Merck Patent GmbH, priority 2010, dated 2014):

Target: T1, P70S6K (T412E mutant, Millipore) (Homo sapiens, UniProt P23443, T412E)
T1 construct: purchased Millipore
Assay: P70S6K Enzyme Assay
Type: biochemical
Settings: 3 nM enzyme, 24 μM ATP, 1 μM FITC-AHA-[…]-OH substrate peptide, 90 min at 25° C., Caliper Lab Chip 3000
Description: P70S6K inhibitor compounds are diluted and plated in 96 well plates. […] The reaction is incubated for 90 min at 25° C., before the addition of 10 mM EDTA to stop the reaction. The proportion of substrate and product (phosphorylated) peptide is analysed on a Caliper Life Sciences Lab Chip 3000, using a pressure of −1.4 psi, and upstream and downstream voltages of −3000 and −700 respectively. Product peaks are resolved before substrate peaks on the resulting chromatograms.

T1 sequence (P23443 whole entry T412E): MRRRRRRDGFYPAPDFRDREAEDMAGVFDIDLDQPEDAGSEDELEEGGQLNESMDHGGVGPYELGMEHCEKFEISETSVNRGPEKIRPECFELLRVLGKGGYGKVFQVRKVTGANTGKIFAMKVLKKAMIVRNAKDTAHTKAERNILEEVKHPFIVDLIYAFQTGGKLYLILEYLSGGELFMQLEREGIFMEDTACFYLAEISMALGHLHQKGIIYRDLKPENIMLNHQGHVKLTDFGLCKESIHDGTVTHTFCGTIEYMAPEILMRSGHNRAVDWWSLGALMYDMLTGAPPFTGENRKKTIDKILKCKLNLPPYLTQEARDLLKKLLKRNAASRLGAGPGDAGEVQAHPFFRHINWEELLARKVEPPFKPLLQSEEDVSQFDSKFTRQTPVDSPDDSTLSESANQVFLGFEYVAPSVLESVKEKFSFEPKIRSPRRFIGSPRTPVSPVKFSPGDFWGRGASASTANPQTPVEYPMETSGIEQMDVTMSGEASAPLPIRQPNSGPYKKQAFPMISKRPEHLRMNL

IC50 [nM] | Structure (SMILES)
2.8 | CNC[C@@H](Nc1nc(C)nc2c(C(N)=O)cccc12)c1ccc(F)cc1 [Example 16, 4-{[(1S)-1-(4-fluorophenyl)-2-(methylamino)ethyl]amino}-2-methylquinazoline-8-carboxamide]
139 | CNC[C@@H](Nc1nc(C)nc2c(C(N)=O)cccc12)c1cccc(F)c1 [Example 17, 4-{[(1S)-1-(3-fluorophenyl)-2-(methylamino)ethyl]amino}-2-methylquinazoline-8-carboxamide]
23 | CNC[C@@H](Nc1nc(C(C)C)nc2c(C(N)=O)cccc12)c1ccc(Cl)cc1 [Example 18, 4-{[(1S)-1-(4-chlorophenyl)-2-(methylamino)ethyl]amino}-2-isopropylquinazoline-8-carboxamide]
0.83 | CNC[C@@H](Nc1nc(C)nc2c(C(N)=O)cccc12)c1ccc(Cl)cc1 [Example 19, 4-{[(1S)-1-(4-chlorophenyl)-2-(methylamino)ethyl]amino}-2-methylquinazoline-8-carboxamide]
1.97 | CCc1nc(N[C@H](CNC)c2cccc(F)c2)c2cccc(C(N)=O)c2n1 [Example 20, 2-Ethyl-4-{[(1S)-1-(3-fluorophenyl)-2-(methylamino)ethyl]amino}quinazoline-8-carboxamide]
0.87 | CCc1nc(N[C@H](CNC)c2cccc(Cl)c2)c2cccc(C(N)=O)c2n1 [Example 21, 4-{[(1S)-1-(3-Chlorophenyl)-2-(methylamino)ethyl]amino}-2-ethylquinazoline-8-carboxamide]
0.98 | CNC[C@@H](Nc1nc(C)nc2c(C(N)=O)cccc12)c1cccc(Cl)c1 [Example 22, 4-{[(1S)-1-(3-Chlorophenyl)-2-(methylamino)ethyl]amino}-2-methylquinazoline-8-carboxamide]
11 | CCc1nc(N[C@H](CNC)c2ccccc2)c2cccc(C(N)=O)c2n1 [Example 23, 2-Ethyl-4-{[(1S)-2-(methylamino)-1-phenylethyl]amino}quinazoline-8-carboxamide]
1.4 | CCc1nc(N[C@H](CNC)c2ccc(Cl)cc2)c2cccc(C(N)=O)c2n1 [Example 24, 4-{[(1S)-1-(4-Chlorophenyl)-2-(methylamino)ethyl]amino}-2-ethylquinazoline-8-carboxamide]
6.46 | CNC[C@@H](Nc1nc(C)nc2c(C(N)=O)cccc12)c1ccccc1 [Example 26, 2-Methyl-4-{[(1S)-2-(methylamino)-1-phenylethyl]amino}quinazoline-8-carboxamide]
4.3 | CNC[C@@H](Nc1nc(C(F)(F)F)nc2c(C(N)=O)cccc12)c1cccc(F)c1 [Example 27, 4-{[(1S)-1-(3-Fluorophenyl)-2-(methylamino)ethyl]amino}-2-(trifluoromethyl)-quinazoline-8-carboxamide]
18.5 | CCc1nc(N[C@H](CN2CCC2)c2cccc(F)c2)c2cccc(C(N)=O)c2n1 [Example 28]
5.84 | Cc1nc(N[C@H](CN2CCC2)c2ccccc2)c2cccc(C(N)=O)c2n1 [Example 29]
33.6 | CCc1nc(N[C@H](CN2CCC2)c2ccccc2)c2cccc(C(N)=O)c2n1 [Example 30]
2.6 | Cc1nc(N[C@H](CN2CCC2)c2ccc(Cl)cc2)c2cccc(C(N)=O)c2n1 [Example 31]
5.5 | CCc1nc(N[C@H](CN2CCC2)c2ccc(Cl)cc2)c2cccc(C(N)=O)c2n1 [Example 32]

IC50 [nM] | Structure (SMILES)
44 | Cc1nc(N[C@H](CN2CCC2)c2ccc(F)cc2)c2cccc(C(N)=O)c2n1 [Example 33]
7 | Cc1nc(N[C@H](CN2CCC2)c2cccc(F)c2)c2cccc(C(N)=O)c2n1 [Example 34]
30 | CCc1nc(N[C@H](CN2CCC2)c2ccc(F)cc2)c2cccc(C(N)=O)c2n1 [Example 36]
12 | CNC[C@@H](Nc1nc(C)nc2c(C(N)=O)cccc12)c1cc(F)ccc1OC [Example 47, 4-[(S)-1-(5-Fluoro-2-methoxy-phenyl)-2-methylamino-ethylamino]-2-methyl-quinazoline-8-carboxylic acid amide]
1 | CNC[C@@H](Nc1nc(C)nc2c(C(N)=O)cccc12)c1ccc(C(F)(F)F)cc1 [Example 48, 2-Methyl-4-[(S)-2-methylamino-1-(4-trifluoromethyl-phenyl)-ethylamino]-quinazoline-8-carboxylic acid amide]
452 | Cc1nc(N[C@@H](Cc2ccccc2)CN(C)C)c2cccc(C(N)=O)c2n1 [Example 49, 4-((S)-1-Benzyl-2-dimethylamino-ethylamino)-2-methyl-quinazoline-8-carboxylic acid amide]
260 | CNC[C@@H](Nc1nc(C)nc2c(C(N)=O)cccc12)c1ccc(F)cc1C(F)(F)F [Example 50, 4-[(1S)-1-[4-fluoro-2-(trifluoromethyl)phenyl]-2-(methylamino)ethyl]amino-2-methylquinazoline-8-carboxamide]
8 | NC[C@@H](Nc1nc(C(F)(F)F)nc2c(C(N)=O)cccc12)c1ccccc1 [Example 51, 4-((S)-2-Amino-1-phenyl-ethylamino)-2-trifluoromethyl-quinazoline-8-carboxylic acid amide]
1 | CNC[C@@H](Nc1nc(C)nc2c(C(N)=O)cccc12)c1ccc(OC(F)(F)F)c(Cl)c1 [Example 52]
3 | CNC[C@@H](Nc1nc(C)nc2c(C(N)=O)cccc12)c1cc(F)ccc1F [Example 53]
7 | CNC[C@@H](Nc1nc(C)nc2c(C(N)=O)cccc12)c1ccc(F)cc1F [Example 54]
6 | CNC[C@@H](Nc1nc(C)nc2c(C(N)=O)cccc12)c1c(F)cccc1F [Example 55]
1 | CNC[C@@H](Nc1nc(C)nc2c(C(N)=O)cccc12)c1cc(F)c(F)cc1F [Example 56, (S)-2-methyl-4-((2-(methylamino)-1-(2,4,5-trifluorophenyl)ethyl)amino)quinazoline-8-carboxamide]
9 | CCc1nc(N[C@H](CNC)c2cccc(F)c2Cl)c2cccc(C(N)=O)c2n1 [Example 60, (S)-4-((1-(2-chloro-3-fluorophenyl)-2-(methylamino)ethyl)amino)-2-ethylquinazoline-8-carboxamide]
330 | CNC[C@@H](Nc1nc(C)nc2c(C(N)=O)cccc12)c1ccc(Cl)c(Cl)c1 [Example 61]
